Where no end group is shown, it is not given here. [ ]: non-standard residue; d: D form.
Legend:
[1] = target: heme environment of cytochrome c (with CL) (Homo sapiens, UniProt P99999); assay: Soret CD spectrum of cyt C in the presence of CL; type: binding; conditions: cyt C 10 μM; CL 30 μg/ml; peptide 10 μM; 20 mM HEPES pH 7.5, 25° C.; FIG. 24
Method: Circular dichroism (CD) was carried out to examine the effects of the peptides on protecting the heme environment of cyt C from the acyl chain of CL. For heme proteins, the Soret CD spectrum is strictly correlated with the heme pocket conformation. In particular, the negative 416-420 nm Cotton effect is considered diagnostic of Fe(III)-Met80 coordination in native cyt C (Santucci and Ascoli, 1997). […] CD spectra were obtained using AVIV CD Spectrometer Model 410.
Changes in the Soret CD spectrum of cyt C (10 μM) were recorded in the absence (dotted line) and presence (dashed line) of 30 μg/ml CL, plus addition of different peptides (10 μM) (solid line) (FIG. 24). CD measurements were carried out using 20 mM HEPES, pH 7.5, at 25° C. and expressed as molar ellipticity (θ) (m Deg).

cytochrome c (with CL) = cytochrome c (with CL) (Homo sapiens, UniProt P99999); assay: Cytochrome c reduction inhibited by CL; type: biochemical; conditions: 500 μM GSH; FIG. 25C
Method: Cytochrome c is a carrier of electrons between respiratory complex III and IV in mitochondria. Cytochrome c is reduced (Fe^2+) after it accepts an electron from cytochrome c reductase, and it is then oxidized to Fe^3+ by cytochrome c oxidase.
Reduction of cytochrome c (20 μM) was induced by the addition of glutathione (500 μM) in the absence or presence of CL (100 μg/ml) (FIG. 25A). Reduction of cytochrome c was monitored by absorbance at 550 nm using a 96-well UV-VIS plate reader (Molecular Devices). Addition of CL decreased the rate of cytochrome c reduction by half.

cytochrome c-CL complex [2] = target: T1, cytochrome c-CL complex (Homo sapiens, UniProt P99999); assay: Cytochrome c/CL peroxidase activity (amplex red); type: biochemical; conditions: figure legend FIG. 29A-C; comparison at a fixed concentration of 10 μM (FIG. 29C)
Description: The six coordination of the heme in cytochrome c prevents direct interaction of H2O2 with the catalytic metal site, and native cytochrome c in solution is a poor peroxidase. Upon interaction with CL, cytochrome c undergoes a structural change with rupture of the Fe-Met80 coordination. […] The mechanism of action of cytochrome c peroxidase is similar to that of other peroxidases, such as horse radish peroxidase (HRP). Thus it is possible to use the amplex red-HRP reaction to investigate cytochrome c peroxidase activity. In the presence of peroxidase, amplex red (AR) reacts with H2O2 to form the red-fluorescent oxidation product, resorufin (Ex/Em=571/585).
Cytochrome c (2 μM) was mixed with CL (25 μg/ml) and 10 μM H2O2 in 20 mM HEPES, pH 7.4. Amplex red (50 μM) was then added and fluorescence emission monitored in real time using Hitachi F4500 fluorescence spectrophotometer. Addition of amplex red elicited rapid increase in fluorescence signal due to resorufin formation, providing direct evidence for peroxidase activity of cytochrome c/CL complex (FIG. 29A).

[3] = Fluorescence spectroscopy of peptide interaction with cardiolipin; type: binding; conditions: for increase in quantal yield of peptide fluorescence: peptide 1 μM
Description: The peptides Dmt-D-Arg-(atn)Dap-Lys-NH2 (SS-19) and Dmt-D-Arg-Phe-Lys-Ald-NH2 (SS-37)cationic peptides carry net positive charge at neutral pH. They are expected to associate with anionic phospholipid cardiolipin based on electrostatic interaction. The interaction of small peptides with lipid membranes can been studied using fluorescence spectroscopy (Surewicz and Epand, 1984). […] Polarity-sensitive fluorescent probes were incorporated into the peptides and fluorescence spectroscopy was used to determine if SS-19, SS-37 and SS-36 interact with CL.
The peptide Dmt-D-Arg-Phe-(atn)Dap-NH2 (SS-19) contains anthraniloyl incorporated into diaminopropionic acid. Anthraniloyl derivatives fluoresce in the 410-420 nm range when excited at 320-330 nm (Hiratsuka T, 1983). The quantum yield of anthraniloyl derivatives is strongly dependent on the local environment, and can increase 5-fold going from water to 80% ethanol, together with a blue shift in the emission maxima (λ max) of <10 nm (Hiratsuka T, 1983). Fluorescence emission spectrum of SS-19 (1 μM) alone, and in the presence of increasing concentrations of CL (5 to 50 μg/ml), was monitored following excitation at 320 nm using Hitachi F-4500 fluorescence spectrophotometer.
The peptide Dmt-D-Arg-Phe-Lys-Ald-NH2 (SS-37) contains an additional amino acid, aladan (Ald), which has been reported to be particularly sensitive to the polarity of its environment and it has been used to probe the electrostatic character of proteins (Cohen et al., 2002). When excited at 350 nm, λmax shifts from 542 nm in water to 409 nm in heptane, accompanied by a significant increase in quantal yield (Cohen et al., 2001). Fluorescence emission spectrum of SS-37 (1 μM) alone, and in the presence of increasing concentrations of CL, was monitored following excitation at 350 nm. Addition of CL (5 to 50 μg/ml) led to a 3-fold increase in quantal yield of SS-37 as well as a clear blue shift in λmax, from 525 nm without CL to 500 nm with 50 μg/ml CL (FIG. 21B).
The peptide Dmt-D-Arg-Ald-Lys-NH2 (SS-36) contains Ald in place Phe^3. Fluorescence emission spectrum of SS-36 (1 μM) alone, and in the presence of increasing concentrations of CL, was monitored following excitation at 350 nm. SS-36 was the most sensitive to the addition of CL, with dramatic increase in quantal yield and blue shift observed with much lower added amounts of CL (1.25 to 5 μg/ml). The λmax shifted from 525 nm without CL to 500 nm with as little as 1.25 μg/ml CL, and quantal yield increased by more than 100-fold with the addition of 5 μg/ml of CL (FIG. 21C).

cytochrome c-CL complex [4] = target: T1, cytochrome c-CL complex; assay: Fluorescence spectroscopy of peptide with cytochrome c in the presence of CL; type: binding; conditions: for peptide fluorescence on addition of cytochrome c in the presence of CL: 2 μM cytochrome c; for emission maxima: with CL 2.5 μg/ml
Method: Fluorescence emission of SS-19 (10 μM) was monitored in real time (Ex/Em=320 nm/420 nm) using Hitachi F-4500 fluorescence spectrophotometer. […] CL may potentiate the interaction between SS-19 and cytochrome c by serving as an anionic platform for the two cationic molecules.
The quenching by cytochrome c was not displaced by sequential additions of bovine serum albumin (500 μg/ml) (FIG. 23C, A+arrows).
SS-36 also contains the polarity-sensitive fluorescent amino acid aladan.

cytochrome c = cytochrome c (Homo sapiens, UniProt P99999); assay: Cytochrome c reduction monitored by absorption spectroscopy (glutathione or NAC as reducing agent); type: biochemical; conditions: absorbance at 550 nm; FIG. 13
Method: Cytochrome c reduction: increasing amounts of aromatic-cationic peptides were added to a solution of oxidized cyt c. The formation of reduced cyt c was monitored by absorbance at […]. The rate of cyt c reduction was determined by non-linear analysis (Prizm software).
Time-resolved UV-Visible absorption spectroscopy was used to study the electron transport process of cyt c in the presence of peptides. Reduced cyt c was monitored by absorbance at a broad-band spectral range (200-1100 nm). The absorption changes were recorded with a UV/Visible spectrophotometer (Ultrospec 3300 pro, GE) in quartz cells with path lengths of 1 or 2 mm. N-acetylcysteine (NAC) and glutathione were used as electron donors to reduce oxidized cyt c. The rate constant of cyt c reduction was estimated by adding various concentrations of peptides. The dose dependence of the peptides was correlated to the cyt c reduction kinetics.
Absorption spectroscopy (UltroSpec 3300 Pro; 220-1100 nm) was used to determine if SS-31 modulates cyt c reduction (FIG. 1). Reduction of cyt c with glutathione is associated with multiple shifts in the Q band (450-650 nm), with a prominent shift at 550 nm.
Reduction of cyt c was monitored by increase in absorbance at 550 nm. […] Similar results were obtained using N-acetylcysteine (NAC) as a reducing agent (not shown).

[5] = test system: isolated rat kidney mitochondria; assay: O2 consumption of isolated rat kidney mitochondria (Oxygraph); type: biochemical
Method: (§1) Fresh mitochondria were isolated from rat kidney as described previously. Electron flux was measured by O2 consumption (Oxygraph Clark electrode) as previously described using different substrates for C1 (glutamate/malate), C2 (succinate), and C3 (TMPD/ascorbate). Assays were carried out under low substrate conditions in order to avoid saturating the enzyme reactions. ATP production in isolated mitochondria was determined kinetically using the luciferase method (Biotherma) in a 96-well luminescence plate reader (Molecular Devices). The initial maximal rate for ATP synthesis was determined over the first minute.
Oxygen consumption of isolated rat kidney mitochondria was determined using the Oxygraph (FIG. 5). Rates of respiration were measured in the presence of different concentrations of SS-31 in state 2 (400 μM ADP only), state 3 (400 μM ADP and 500 μM substrates) and state 4 (substrates only). All experiments were done in triplicate with n=4-7.
(§2) SS-20 or SS-31 was added at 100 μM concentrations to isolated mitochondria in respiration buffer containing 0.5 mM succinate (complex II substrate) and 400 μM ADP. Similar increases in O2 consumption were observed when low concentrations of complex I substrates (glutamate/malate) were used (data not shown).
SS-20 or SS-31 was added at 10 μM or 100 μM concentrations to isolated mitochondria in respiration buffer containing glutamate/malate (complex I substrate), 0.5 mM succinate (complex II substrate) or 3 μM TMPD/1 mM ascorbate (direct reductant of cyt C). 400 μM ADP was added to initiate State 3 respiration.

isolated mitochondria = assay: ATP synthesis in isolated mitochondria; type: biochemical, rat; conditions: mitochondria energized with low concentrations of succinate; FIG. 15
Method: as §1
The rate of mitochondrial ATP synthesis was determined by measuring ATP in respiration buffer collected from isolated mitochondria 1 min after addition of […] (FIG. 6). ATP was assayed by HPLC. All experiments were carried out in triplicate, with n=3.
as §2
Increase in electron flux in the electron transport chain can either result in increase in ATP synthesis or increase in electron leak and generation of free radicals. ATP synthesis in isolated mitochondria was assayed by HPLC.

T1 sequence (P99999 2-105 limits assumed, species assumed, one chain of several): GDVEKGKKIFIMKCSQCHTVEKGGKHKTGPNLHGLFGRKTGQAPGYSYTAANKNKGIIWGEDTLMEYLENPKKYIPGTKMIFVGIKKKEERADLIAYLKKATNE
Sequence of heme environment of cytochrome c (with CL) (P99999 2-105 limits assumed, species assumed): as the sequence (P99999 2-105 limits assumed, species assumed, one chain of several) above
Sequence of cytochrome c (with CL) (P99999 2-105 limits assumed, species assumed): as the sequence (P99999 2-105 limits assumed, species assumed, one chain of several) above
Sequence of cytochrome c (P99999 2-105 limits assumed, species assumed): as the sequence (P99999 2-105 limits assumed, species assumed, one chain of several) above

With “D-Arg-Tyr-Lys-Phe-NH2 ([dR]YKF-NH2; N-terminus assumed; SMILES N=C(N)NCCC[C@@H](N)C(=O)N[C@@H](Cc1ccc(O)cc1)C(=O)N[C@@H](CCCCN)C(=O)N[C@@H](Cc1ccccc1)C(N)=O) [SPI-231]” the “disappearance of the negative Cotton effect caused by CL (heme environment of cytochrome c)” value (“disappearance” for short) [1] was “Protect the Heme Environment of Cytochrome C from the Acyl Chain of CL”, the “CL inhibition of cyt C reduction” value (cytochrome c (with CL)) was “prevented CL inhibition of cyt C reduction” and the “peroxidase activity in cytochrome c/CL complex” value (from here on “peroxidase activity”) (cytochrome c-CL complex [2]) was “preventing peroxidase activity in cytochrome c/CL complex”.
With Dmt-D-Arg-Ald-Lys-NH2 [SS-36] the “increase in quantal yield of peptide fluorescence” value ([3]; CL 5 μg/ml, excitation 350 nm) was “more than 100 fold”, the “λmax of fluorescence emission” value ([3]; with 1.25 μg/ml CL, excitation 350 nm) was 500 nm and the “λmax of fluorescence emission” value ([3]; without CL, excitation 350 nm) was 525 nm. For the same substance, the “peptide fluorescence on addition of cytochrome c in the presence of CL” value (cytochrome c-CL complex [4]; CL 2.5 μg/ml, FIG. 23D) was “dramatic quenching of peptide's fluorescence”, the “peptide fluorescence on addition of CL” value (cytochrome c-CL complex [4]; CL 2.5 μg/ml, FIG. 23D) was “increase in SS-36 fluorescence” and the emission maxima (cytochrome c-CL complex [4]; after 2 μM cytochrome c) was 450 nm. For the same substance, the emission maxima (cytochrome c-CL complex [4]; before cytochrome c) was 510 nm, the “disappearance” value [1] was “Protect the Heme Environment of Cytochrome C from the Acyl Chain of CL” and the “peroxidase activity” value (cytochrome c-CL complex [2]) was “preventing peroxidase activity in cytochrome c/CL complex”.
In the case of Dmt-D-Arg-Phe-Lys-Ald-NH2 [SS-37], the “increase in quantal yield of peptide fluorescence” value ([3]; CL 5-50 μg/ml) is reported as 3 fold, the “λmax of fluorescence emission” value ([3]; with 50 μg/ml CL, excitation 350 nm) is reported as 500 nm and the “λmax of fluorescence emission” value ([3]; without CL, excitation 350 nm) is reported as 525 nm. The “displacement of cytochrome c quenching by bovine serum albumin in the presence of CL” value (cytochrome c-CL complex [4]; CL 50 μg/ml, BSA 500 μg/ml, FIG. 23C) was “not displaced”, the “peptide fluorescence on addition of cytochrome c in the presence of CL” value (cytochrome c-CL complex [4]; peptide 10 μM, CL 50 μg/ml) was “similarly quenched” and the “peroxidase activity” value (cytochrome c-CL complex [2]) was “preventing peroxidase activity in cytochrome c/CL complex”.
In the case of F[dR]FK-NH2 [SS-20], the “kinetics of cyt c reduction induced by glutathione (GSH)” value (cytochrome c) is reported as “can accelerate the kinetics of cyt c reduction”, the “O2 consumption in state 3 respiration” value ([5]; glutamate/malate, succinate or TMPD/ascorbate, 400 μM ADP, FIG. 26) is reported as “increases O2 consumption in state 3 respiration” and the “electron flux, as measured by O2 consumption” value ([5]; peptide 10 μM or 100 μM, complex I, complex II substrate or TMPD/ascorbate, FIG. 26) is reported as “can promote electron flux”. For the same substance, the “electron flux, as measured by O2 consumption” value ([5]; peptide 100 μM, 0.5 mM succinate, 400 μM ADP, FIG. 14) was “can promote electron flux”, the “rate of ATP production” value (isolated mitochondria) was “significant increase in the rate of ATP production” and the “disappearance” value [1] was “Protect the Heme Environment of Cytochrome C from the Acyl Chain of CL”. The “CL inhibition of cyt C reduction” value (cytochrome c (with CL)) was “prevented CL inhibition of cyt C reduction” and the “peroxidase activity” value (cytochrome c-CL complex [2]) was “preventing peroxidase activity in cytochrome c/CL complex”.

— patent publication US20140349941A1, “AROMATIC-CATIONIC PEPTIDES AND USES OF SAME” (Cornell University, priority 2011, published 2014)
